Reference: US12162836B2, “N-acyl-{4-[(4-aryl-phenyl)sulfonylmethyl]piperidine} compounds and their therapeutic use” (Modern Biosciences Limited, priority 2019, dated 2024)
Converted amounts (≈) assume the structure as drawn.

How the values were obtained:
[1] = target: CYP1A2 (Homo sapiens (Human), UniProt P05177); experiment: Human Cytochrome P450 Inhibition Assay (Bactosomes); format: in vitro ADME; details: recombinant enzyme
Protocol: (§1) The ability of test compounds to inhibit five of the most relevant cytochrome P450 enzymes was measured by determination of the activity of cytochrome P450 enzymes in recombinant cytochrome preparations, called Bactosomes (Cypex Ltd, Dundee, Scotland UK DD2 1 NH), in the presence of a specific probe substrate. Bactosomes are a highly efficient and cost-effective source of recombinant CYP450s which have a higher specific activity of enzyme compared to other sources, such as liver microsomes. […] The following CYP450 isoforms were assayed: CYP1A2, CYP2C9, CYP2C19, CYP2D6 and CYP3A4. The study of CYP450 inhibition potential in Bactosomes is accepted as a valuable model permitting rapid prediction of potential drug-drug interactions in vivo (see, e.g., Weaver et al., 2003).
(§2) Bactosomes were obtained from a commercial source (Cypex, Scotland, UK). Test compounds were incubated with Bactosomes at 6 concentrations. Samples were incubated for 10 minutes, after which the reaction was stopped and the samples analysed by LC-MS/MS Multiple Reaction Monitoring (MRM) for the presence/amount of substrate probe.
(§3) CYP450 enzymes (final protein 75 pmol/mL for CYP1A2; 12.5 pmol/mL for CYP2C19; and 25 pmol/mL for CYP2C9, 2D6 and 3A4), 0.1 M phosphate buffer pH 7.4, probe and test compound (final concentration 50, 15.8, 5, 1.58, 0.5 and 0.158 μM; diluted from 10 mM stock solution to give a final DMSO concentration of 1%) were pre-incubated at 37° C. for 5 minutes. The reaction was initiated by the addition of 20 μL of 10 mM NADPH in phosphate buffer. The final incubation volume was 200 μL. The following control inhibitors were used for each CYP450 inhibition assay: CYP1A2: α-naphthoflavone; CYP2C9: sulfaphenazole; CYP2C19: tranylcypromine; CYP2D6: quinidine; CYP3A4: ketoconazole.
(§4) Each compound was incubated for 10 minutes at 37° C. The reactions were stopped by the addition of methanol (final composition 1:1, aqueous: methanol). The incubation plates were shaken, chilled at […] for 2 hours, and centrifuged at 3500 rpm for 15 minutes at 4° C. to precipitate the protein.

[2] = target: CYP2D6 (Homo sapiens (Human), UniProt P10635); experiment: as above; format: in vitro ADME; details: recombinant Bactosomes, 10 minutes
Protocol: as §1, §2, §3, §4

[3] = target: CYP3A4 (Homo sapiens (Human), UniProt P08684); experiment: as above; format: in vitro ADME; details: recombinant Bactosomes, 10 minutes
Protocol: as §1, §2, §3, §4

[4] = target: CYP2C19 (Homo sapiens (Human), UniProt P33261); experiment: as above; format: in vitro ADME; details: recombinant Bactosomes, 10 minutes
Protocol: as §1, §2, §3, §4

[5] = target: CYP2C9 (Homo sapiens (Human), UniProt P11712); experiment: as above; format: in vitro ADME; details: recombinant Bactosomes, 10 minutes
Protocol: as §1, §2, §3, §4

[6] = Rodent Pharmacokinetics Studies; format: in vivo, rat; details: rats
Excerpt: Absorption and metabolic stability were studied using an in vivo pharmacokinetics assay.
[…] Test compounds were formulated in 0.5% carboxymethylcellulose (CMC)/0.1% Tween-80 for administration via the oral route, or in 5% DMSO/10% solutol in saline for administration via the intravenous route. For compound HMC-C-01-A the oral administration was formulated in 2% dimethylacetamide/20% hydroxypropyl-β-cyclodextrin in water. Animals were given free access to food throughout the study except for fasting overnight and until 2 hours post dose on the day of dosing.
Blood samples were taken from the retro-orbital plexus at the following time points and placed in microtubes containing 20% K2EDTA solution:
Oral Dosing: predose; 0.25, 0.5, 1, 2, 4, 6, 8, 12 and 24 hours post dose.
Blood samples were centrifuged to obtain plasma, which was transferred to a separate container and frozen at −20° C.
For analysis, samples were thawed at room temperature and prepared by protein precipitation with acetonitrile spiked with internal standard (500 ng/mL glipizide) in the ratio 1:4 with plasma.
The pharmacokinetic parameters for the test compounds were calculated by Phoenix WinNonlin version 8.0 (Certara, CA) using standard non-compartmental methods. Peak plasma concentrations (Cmax) and time of the peak plasma concentration (Tmax) were the observed values. The area under the plasma concentration-time curve (AUC) was determined by use of the linear trapezoidal rule up to the last measurable concentration (AUClast) and thereafter by extrapolation of the terminal elimination phase to infinity (AUCinf). The elimination phase half-life (t1/2) was calculated as 0.693/kel.

[7] = test system: Thp1 human monocytic cells; experiment: Thp1 Monocyte ATP Production Assay (ATPlite); format: cell-based; details: Homo sapiens, THP-1; Thp1 cells, 24 hour incubation; 9-point concentration range from 10 μM to 10 nM; mean of 2 independent experiments
Protocol: In vitro potency of test compounds was determined by incubation with Thp1 human monocytic cells and subsequent determination of Adenosine TriPhosphate (ATP) levels using firefly luciferase.
ATP is present in all metabolically active cells. When cells lose integrity, their ability to synthesise ATP is rapidly lost. […] See, e.g., Kang et al., 2015; Jiang et al., 2013. Levels of ATP can be monitored using a system based on firefly (Photinus pyralis) luciferase (see, e.g., Auld et al., 2009) using commercially available kits. A system known as ATPlite™ was using to measure effects of the test compounds on cellular viability in vitro. This one-step assay system is an adenosine triphosphate (ATP) monitoring system based on the production of light caused by the reaction of ATP from the cells with added luciferase and D-luciferin, as illustrated in the reaction scheme below:
Thp1 cells were plated at 112500 cells per well in 125 μL RPMI-1640 (no glucose) with 1% FBS in 96-well plates. Test compounds were prepared as 100 mM solutions in DMSO. These stock solutions were diluted in DMSO and then diluted 1000× in culture medium (RPMI) before being added directly to the wells so as to give the desired final compound concentration. After a 24 hour incubation at 37° C./5% CO2, ATPLite™ (Perkin Elmer) was added to each well (1:10 v/v, 10 μL). The plate was then incubated at room temperature for 5 minutes and the emitted light was quantified on Viewlux with a measurement time of 0.3 seconds and binning 4×4.
The average results for each test compound were expressed as a percent (%) of the average control value reflecting cell viability. The average values across the concentrations tested were then plotted and the IC50 for was calculated by fitting the data to a 4-parameter IC50 equation using software from Graf it (Erithacus Software). Each experiment was repeated twice and the data are presented as the mean IC50 from both experiments.

[8] = target: hERG (Homo sapiens (Human), UniProt Q12809); experiment: hERG Ion Channel binding assay (3H astemizole displacement); details: human, membranes of HEK293 cells stably expressing hERG, pH 7.4, probe 3H astemizole (1.5 nM); 30 μM; displacement of 3H astemizole, hERG-HEK293 membranes
Protocol: (§5) The activity of the compounds against the hERG ion channel was tested using a binding assay in stably transfected Human Embryonic Kidney cells (hERG-HEK293). hERG-HEK293 cells were cultured in MEM medium (Invitrogen)+10% FBS, glutamine and non-essential amino acids at 37° C. To prepare membranes, cells were homogenised on ice, centrifuged at 650×g for 10 minutes at +4° C., and the resulting supernatant centrifuged at 48000×g for 10 minutes at +4° C. The pellet was resuspended in ice-cold 50 mM Tris-HCl buffer, 5 mM KCl (pH 8.5) and stored frozen in aliquots until use.
(§6) For binding assays, membranes were thawed, re-suspended in assay buffer (10 mM HEPES pH 7.4, 0.1% BSA, 5 mM potassium chloride, 0.8 mM magnesium chloride, 130 mM sodium chloride, 1 mM sodium-EGTA, 10 mM glucose) and incubated with ^3H astemizole (1.5 nM), and with or without test compound at 25° C. for 60 minutes. Binding was determined following filtration of the membranes and washing in Tris-HCl buffer by scintillation counting of ^3H astemizole.
(§7) The degree of binding of compounds to the hERG ion channel (%) was obtained by measuring the binding of ^3H astemizole and its displacement by test compound. A value of 0% indicates no binding and a value of 100% indicates complete displacement of the radiolabelled ligand.

[9] = target: hERG ion channel (Homo sapiens (Human), UniProt Q12809); experiment: as above
Protocol: as §5, §6, §7

[10] = Aqueous solubility in FaSSIF; format: physicochemical
Protocol: Aqueous solubility was measured by equilibration of compounds with fasted state simulated intestinal fluid (FaSSIF) and quantified spectrophotometrically.
Preparation of blank FaSSIF: 0.21 g of sodium hydroxide (NaOH) pellets, 1.97 g of dihydrogen sodium phosphate (NaH2PO4.2H2O) and 3.09 g of sodium chloride (NaCl) were dissolved in 400 mL of deionised water. The pH was adjusted to 6.5 using 1 M hydrochloric acid and further deionised water added to a final volume of 500 mL.
Preparation of FaSSIF: 0.056 g of SIF Powder (containing sodium taurocholate and lecithin) (Pharses A G) was dissolved in 25 mL of blank FaSSIF and stirred until the powder was completely dissolved. The solution was allowed to stand for 2 hours during which it became opalescent; it was used within 24 hours. The final solution composition was characterised as follows: • Sodium taurocholate: 3 mM • Lecithin: 0.75 mM • Osmolarity: 270±10 mOsmol • pH: 6.5
The optical density was measured at the end of the incubation period for test compounds and a reference used to determine solubility. In brief, two samples were prepared for each determination: a reference sample consisting of a stock solution of test compound in DMSO diluted in system solution (a phosphate free, low absorption buffer) and propanol; and a test sample (prepared in triplicate) consisting of 0.5 mL FaSSIF spiked with test compound at 0.2 mM. Each sample was incubated at room temperature for 16 hours with constant shaking at 250 rpm. At the end of the incubation period, 0.3 mL of each sample was filtered through a pION filter plate (PION, Woburn MA), diluted 1:1 with propanol and scanned using UV spectrophotometry at Amax ([…]) using a Spectra Max Plus—Version 2.1000 (Molecular Devices, Sunnyvale, CA), with pSOL Explorer solubility determination software (pION, Woburn, MA).
FaSSIF solubility was calculated using the following formula:
[formula] • wherein: • “OD” is the optical density; • “Cr” is the concentration of the reference (33.4 μM); and • “molecular weight” is for the test compound (e.g., 381.44 for ABD735).

Sequence of CYP2C19 (P33261 whole entry): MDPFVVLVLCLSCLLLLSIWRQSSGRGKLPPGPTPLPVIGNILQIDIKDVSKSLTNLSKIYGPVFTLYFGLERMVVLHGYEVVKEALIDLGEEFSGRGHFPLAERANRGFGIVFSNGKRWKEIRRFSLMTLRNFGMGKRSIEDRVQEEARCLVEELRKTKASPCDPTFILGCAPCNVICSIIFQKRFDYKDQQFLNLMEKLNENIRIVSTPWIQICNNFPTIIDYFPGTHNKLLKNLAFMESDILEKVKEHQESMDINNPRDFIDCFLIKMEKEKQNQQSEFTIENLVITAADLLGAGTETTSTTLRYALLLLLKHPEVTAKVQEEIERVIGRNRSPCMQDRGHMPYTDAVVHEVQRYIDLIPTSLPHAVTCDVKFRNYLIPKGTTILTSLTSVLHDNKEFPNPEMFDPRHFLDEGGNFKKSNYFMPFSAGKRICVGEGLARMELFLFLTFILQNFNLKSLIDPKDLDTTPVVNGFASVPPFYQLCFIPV
Sequence of CYP2D6 (P10635 whole entry): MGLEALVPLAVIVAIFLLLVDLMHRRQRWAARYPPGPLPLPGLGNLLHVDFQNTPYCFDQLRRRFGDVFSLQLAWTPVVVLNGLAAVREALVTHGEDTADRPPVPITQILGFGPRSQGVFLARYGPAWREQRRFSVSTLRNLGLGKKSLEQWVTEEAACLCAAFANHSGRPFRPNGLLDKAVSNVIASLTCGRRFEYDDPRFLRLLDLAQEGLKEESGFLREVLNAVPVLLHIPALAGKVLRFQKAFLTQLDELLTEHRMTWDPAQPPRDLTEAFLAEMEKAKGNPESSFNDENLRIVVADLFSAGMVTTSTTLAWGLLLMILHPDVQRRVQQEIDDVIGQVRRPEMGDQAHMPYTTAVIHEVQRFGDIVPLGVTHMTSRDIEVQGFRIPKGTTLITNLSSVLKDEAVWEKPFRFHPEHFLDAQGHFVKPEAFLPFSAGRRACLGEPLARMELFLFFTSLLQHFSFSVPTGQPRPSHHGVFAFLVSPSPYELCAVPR
Sequence of CYP1A2 (P05177 whole entry, canonical isoform): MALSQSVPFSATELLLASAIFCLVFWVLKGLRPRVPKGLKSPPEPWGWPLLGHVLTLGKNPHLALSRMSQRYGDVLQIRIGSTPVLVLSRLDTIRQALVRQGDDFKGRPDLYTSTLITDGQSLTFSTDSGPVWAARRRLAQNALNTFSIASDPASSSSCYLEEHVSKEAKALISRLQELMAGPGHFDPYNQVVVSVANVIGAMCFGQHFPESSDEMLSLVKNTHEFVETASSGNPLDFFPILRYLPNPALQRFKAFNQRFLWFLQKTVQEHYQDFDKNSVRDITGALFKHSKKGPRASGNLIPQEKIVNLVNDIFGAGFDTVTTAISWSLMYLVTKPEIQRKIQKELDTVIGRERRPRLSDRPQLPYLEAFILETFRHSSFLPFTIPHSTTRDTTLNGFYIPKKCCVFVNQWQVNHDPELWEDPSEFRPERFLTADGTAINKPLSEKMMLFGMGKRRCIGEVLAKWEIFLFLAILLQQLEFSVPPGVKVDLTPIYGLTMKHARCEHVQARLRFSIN
Sequence of CYP2C9 (P11712 whole entry): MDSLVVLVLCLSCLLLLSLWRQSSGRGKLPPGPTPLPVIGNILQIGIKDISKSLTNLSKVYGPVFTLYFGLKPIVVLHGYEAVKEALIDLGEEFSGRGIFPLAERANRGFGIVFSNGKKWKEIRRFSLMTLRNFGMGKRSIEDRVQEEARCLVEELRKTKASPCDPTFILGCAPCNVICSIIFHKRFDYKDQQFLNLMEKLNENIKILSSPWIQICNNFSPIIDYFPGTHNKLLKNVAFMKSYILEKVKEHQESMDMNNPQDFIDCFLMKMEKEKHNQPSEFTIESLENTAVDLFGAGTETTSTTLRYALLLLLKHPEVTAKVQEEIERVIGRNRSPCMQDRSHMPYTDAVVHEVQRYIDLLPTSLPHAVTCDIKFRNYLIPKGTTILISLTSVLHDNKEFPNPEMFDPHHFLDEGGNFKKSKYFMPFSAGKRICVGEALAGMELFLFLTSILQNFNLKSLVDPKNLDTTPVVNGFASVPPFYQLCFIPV
Sequence of CYP3A4 (P08684 whole entry): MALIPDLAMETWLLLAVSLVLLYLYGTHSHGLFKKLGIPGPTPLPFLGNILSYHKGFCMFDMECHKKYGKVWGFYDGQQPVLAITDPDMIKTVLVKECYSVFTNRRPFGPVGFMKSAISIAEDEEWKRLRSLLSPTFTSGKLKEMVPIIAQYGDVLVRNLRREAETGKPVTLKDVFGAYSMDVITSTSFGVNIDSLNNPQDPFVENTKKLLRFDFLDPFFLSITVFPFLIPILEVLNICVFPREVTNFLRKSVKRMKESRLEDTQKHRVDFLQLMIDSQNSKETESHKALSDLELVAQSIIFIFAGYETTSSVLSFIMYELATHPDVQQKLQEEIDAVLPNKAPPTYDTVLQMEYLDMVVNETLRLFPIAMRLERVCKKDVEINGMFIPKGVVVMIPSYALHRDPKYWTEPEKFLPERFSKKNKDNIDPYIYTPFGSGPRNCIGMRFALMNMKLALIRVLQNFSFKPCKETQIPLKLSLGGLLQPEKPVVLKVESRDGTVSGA
Sequence of hERG ion channel (Q12809 whole entry): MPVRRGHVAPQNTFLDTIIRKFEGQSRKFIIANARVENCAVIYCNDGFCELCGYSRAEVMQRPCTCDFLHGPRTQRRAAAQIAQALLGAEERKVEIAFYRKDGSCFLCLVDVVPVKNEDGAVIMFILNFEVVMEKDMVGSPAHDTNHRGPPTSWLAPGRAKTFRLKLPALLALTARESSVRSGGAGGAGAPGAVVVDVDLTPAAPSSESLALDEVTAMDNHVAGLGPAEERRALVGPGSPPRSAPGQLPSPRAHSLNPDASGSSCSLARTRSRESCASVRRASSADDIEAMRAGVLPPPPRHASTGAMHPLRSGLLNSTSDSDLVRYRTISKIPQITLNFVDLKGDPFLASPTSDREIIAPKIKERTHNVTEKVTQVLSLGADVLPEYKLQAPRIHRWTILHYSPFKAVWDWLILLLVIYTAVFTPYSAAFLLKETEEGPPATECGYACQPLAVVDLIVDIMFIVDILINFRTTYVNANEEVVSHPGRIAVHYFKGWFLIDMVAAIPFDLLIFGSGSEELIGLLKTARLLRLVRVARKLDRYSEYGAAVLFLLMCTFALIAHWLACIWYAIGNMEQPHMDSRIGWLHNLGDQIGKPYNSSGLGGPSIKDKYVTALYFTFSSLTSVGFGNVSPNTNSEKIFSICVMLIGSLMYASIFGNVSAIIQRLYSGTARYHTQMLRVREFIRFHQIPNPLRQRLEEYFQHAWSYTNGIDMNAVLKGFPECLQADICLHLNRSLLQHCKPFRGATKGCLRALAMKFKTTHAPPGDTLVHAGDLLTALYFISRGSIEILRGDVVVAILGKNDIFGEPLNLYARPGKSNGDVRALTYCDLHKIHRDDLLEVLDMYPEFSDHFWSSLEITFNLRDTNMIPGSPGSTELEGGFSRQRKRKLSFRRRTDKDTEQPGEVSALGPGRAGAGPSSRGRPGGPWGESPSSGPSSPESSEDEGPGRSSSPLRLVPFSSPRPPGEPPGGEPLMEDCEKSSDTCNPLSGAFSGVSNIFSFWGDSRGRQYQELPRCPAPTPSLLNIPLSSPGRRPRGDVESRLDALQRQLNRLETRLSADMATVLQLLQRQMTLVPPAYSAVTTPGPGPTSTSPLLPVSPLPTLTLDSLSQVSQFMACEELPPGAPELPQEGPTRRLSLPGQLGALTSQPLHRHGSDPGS
Sequence of hERG (Q12809 whole entry): as above

With `CC1(O)CCC(NS(=O)(=O)c2ccc(-c3ccc(C#N)cc3Cl)cc2)CC1` (centres unmarked) [HMC-C-09-A, reference compound] the IC50 [1] was 23 µM, the IC50 [2] was over 50 µM and the IC50 [3] was 33 µM. For the same compound, the IC50 [4] was over 50 µM and the IC50 [5] was 34 µM.
Compound `CC1(O)CCC(NS(=O)(=O)c2ccc(-c3cc(F)c(F)cc3F)cc2)CC1` (centres unmarked) [HMC-C-10-B, reference compound] has an IC50 [1] of over 16 µM, an IC50 [2] of over 16 µM and an IC50 [3] of 9.2 µM. The IC50 [4] was 8.5 µM and the IC50 [5] was 2.4 µM.
`CC1(O)CCC(NS(=O)(=O)c2ccc(-c3ccc(Cl)cc3C#N)c(Cl)c2)CC1` (centres unmarked) [HMC-C-11-A, reference compound] showed an IC50 [1] of 11 µM, an IC50 [2] of 9.3 µM and an IC50 [3] of 12 µM. It also gave an IC50 [4] of 5.1 µM and an IC50 [5] of 2.7 µM.
With `CC1(O)CCC(NS(=O)(=O)c2ccc(-c3ncc(Cl)cc3C#N)cc2)CC1` (centres unmarked) [HMC-N-05-A, reference compound] the T1/2 ([6]; 5% DMSO/10% solutol in saline both routes (footnote 1)) was 48 min, the “Bioavail, F” value ([6]; 5% DMSO/10% solutol in saline for both oral and intravenous routes (footnote 1)) was 88% and the “i.v. AUC” value ([6]; intravenous, 5% DMSO/10% solutol in saline (footnote 1)) was 891 ng/mL/min. For the same compound, the “p.o. AUC” value ([6]; oral, 5% DMSO/10% solutol in saline (footnote 1)) was 3937 ng/mL/min, the IC50 [1] was 36 µM and the IC50 [2] was over 50 µM. It also gave an IC50 [3] of over 50 µM, an IC50 [4] of over 50 µM and an IC50 [5] of 27 µM.
With `CC(=O)N1CCC(C(C)S(=O)(=O)c2ccc(-c3ccc(F)cc3F)cc2)CC1` (centres unmarked) [NASMP-17, 1-(4-(1-((2′,4′-Difluoro-[1,1′-biphenyl]-4-yl)sulfonyl)ethyl)piperidin-1-yl)ethan-1-one] the IC50 [7] was 4.6 µM, the inhibition at 60 min, 30 µM [8] was 14% and the “cardiac safety profile, hERG (in words)” value [9] was “particularly positive profile”. The “solubility (in words)” value [10] was “particularly good solubility” and the solubility at 16 h ([10]; kinetic from dmso stock, pH 6.5, 16 hours, room temperature) was 77 µg/mL (≈ 189 µM).
